{
  "source": "patent US11053204B2",
  "about": "“Pyrimidinyloxy benzene derivatives as herbicides” (FMC Corporation, priority 2015, dated 2021)",
  "type_in_all_cases": "in vivo",
  "key": {"[1]": {"system": "barnyardgrass (Echinochloa crus-galli)", "assay": "Test C postemergence, plant response rating", "settings": "Echinochloa crus-galli, post-emergence", "procedure,_shortened": "(§1)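 Both timings shared one formulation, a non-phytotoxic solvent mixture with surfactant, and a greenhouse period of 13 to 15 d. Preemergence used seeded loam/sand or silt loam soil, postemergence used 2 to 18 cm plants; visual ratings ran from 0 (no effect) to 100 (complete control).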"}, "[2]": {"system": "ryegrass, Italian (Italian ryegrass, Lolium multiflorum)", "assay": "Test C postemergence, plant response rating", "settings": "Lolium multiflorum, post-emergence", "procedure,_shortened": "as §1"}, "[3]": {"system": "blackgrass (Alopecurus myosuroides)", "assay": "Test C postemergence, plant response rating", "settings": "Alopecurus myosuroides, post-emergence", "procedure,_shortened": "as §1"}, "[4]": {"system": "ragweed (common ragweed, Ambrosia elatior)", "assay": "Test C postemergence, plant response rating", "settings": "Ambrosia artemisiifolia, post-emergence", "procedure,_shortened": "as §1"}, "[5]": {"system": "velvetleaf (Abutilon theophrasti)", "assay": "Test C postemergence, plant response rating", "settings": "Abutilon theophrasti, post-emergence", "procedure,_shortened": "as §1"}, "[6]": {"system": "oat, wild (wild oat Avena fatua)", "assay": "Test C postemergence, plant response rating", "settings": "Avena fatua, post-emergence", "procedure,_shortened": "as §1"}, "[7]": {"system": "lambsquarters (Chenopodium album)", "assay": "Test C postemergence, plant response rating", "settings": "Chenopodium album, post-emergence", "procedure,_shortened": "as §1"}, "[8]": {"system": "wheat (winter wheat, Triticum aestivum)", "assay": "Test C postemergence, plant response rating", "settings": "Triticum aestivum, post-emergence", "procedure,_shortened": "as §1"}, "[9]": {"system": "nutsedge, yellow (yellow nutsedge, Cyperus esculentus)", "assay": "Test C postemergence, plant response rating", "settings": "Cyperus, post-emergence", "procedure,_shortened": "as §1"}, "[10]": {"system": "chickweed (common chickweed, Stellaria media)", "assay": "Test C postemergence, plant response rating", "settings": "Stellaria media, post-emergence", "procedure,_shortened": "as §1"}, "[11]": {"system": "morningglory (Ipomoea coccinea)", "assay": "Test C postemergence, plant response rating", "settings": "Ipomoea, post-emergence", "procedure,_shortened": "as §1"}, "[12]": {"system": "barnyardgrass (Echinochloa crus-galli)", "assay": "Test C preemergence, plant response rating", "settings": "Echinochloa crus-galli, pre-emergence, Preemergence"}, "[13]": {"system": "pigweed (Amaranthus retroflexus)", "assay": "Test C preemergence, plant response rating", "settings": "Preemergence"}, "[14]": {"settings": "62 g ai/ha, scale 0 to 100 (0 no effect, 100 complete control)"}, "[15]": {"settings": "125 g ai/ha, scale 0 to 100 (0 no effect, 100 complete control)"}},
  "data": [
    {"smiles": "O=C(OCCC(F)(F)F)c1c(Cl)cccc1Oc1ncc(Cl)cn1", "note": "[Compound 15, 3,3,3-trifluoropropyl 2-chloro-6-[(5-chloro-2-pyrimidinyl)oxy]benzoate]", "values": [
      {"measurement": "pest or weed control at 16 g/ha", "setting": "[1]; 16 g ai/ha, scale 0 to 100", "result": 20, "unit": "%"},
      {"measurement": "pest or weed control at 31 g/ha", "setting": "[1]; 31 g ai/ha, scale 0 to 100", "result": 15, "unit": "%"},
      {"measurement": "pest or weed control at 62 g/ha", "setting": "[1]; [14]", "result": 20, "unit": "%"},
      {"measurement": "pest or weed control at 125 g/ha", "setting": "[1]; [15]", "result": 20, "unit": "%"},
      {"measurement": "pest or weed control at 16 g/ha", "setting": "[2]; 16 g ai/ha, scale 0 to 100", "result": 0, "unit": "%"},
      {"measurement": "pest or weed control at 31 g/ha", "setting": "[2]; 31 g ai/ha, scale 0 to 100", "result": 5, "unit": "%"},
      {"measurement": "pest or weed control at 62 g/ha", "setting": "[2]; [14]", "result": 10, "unit": "%"},
      {"measurement": "pest or weed control at 125 g/ha", "setting": "[2]; [15]", "result": 5, "unit": "%"},
      {"measurement": "pest or weed control at 16 g/ha", "setting": "[3]; 16 g ai/ha, scale 0 to 100", "result": 0, "unit": "%"},
      {"measurement": "pest or weed control at 31 g/ha", "setting": "[3]; 31 g ai/ha, scale 0 to 100", "result": 5, "unit": "%"},
      {"measurement": "pest or weed control at 62 g/ha", "setting": "[3]; [14]", "result": 10, "unit": "%"},
      {"measurement": "pest or weed control at 125 g/ha", "setting": "[3]; [15]", "result": 10, "unit": "%"},
      {"measurement": "pest or weed control at 16 g/ha", "setting": "[4]; 16 g ai/ha, scale 0 to 100", "result": 30, "unit": "%"},
      {"measurement": "pest or weed control at 31 g/ha", "setting": "[4]; 31 g ai/ha, scale 0 to 100", "result": 40, "unit": "%"},
      {"measurement": "pest or weed control at 62 g/ha", "setting": "[4]; [14]", "result": 50, "unit": "%"},
      {"measurement": "pest or weed control at 125 g/ha", "setting": "[4]; [15]", "result": 65, "unit": "%"},
      {"measurement": "pest or weed control at 16 g/ha", "setting": "[5]; 16 g ai/ha, scale 0 to 100", "result": 50, "unit": "%"},
      {"measurement": "pest or weed control at 31 g/ha", "setting": "[5]; 31 g ai/ha, scale 0 to 100", "result": 50, "unit": "%"},
      {"measurement": "pest or weed control at 62 g/ha", "setting": "[5]; 62 g ai/ha, scale 0 to 100 (0 no effect, 100 complete control), read-out: Velvetleaf plant response rating", "result": 60, "unit": "%"},
      {"measurement": "pest or weed control at 125 g/ha", "setting": "[5]; [15]", "result": 85, "unit": "%"},
      {"measurement": "pest or weed control at 16 g/ha", "setting": "[6]; 16 g ai/ha, scale 0 to 100", "result": 5, "unit": "%"},
      {"measurement": "pest or weed control at 31 g/ha", "setting": "[6]; 31 g ai/ha, scale 0 to 100", "result": 5, "unit": "%"},
      {"measurement": "pest or weed control at 62 g/ha", "setting": "[6]; [14]", "result": 5, "unit": "%"},
      {"measurement": "pest or weed control at 125 g/ha", "setting": "[6]; [15]", "result": 10, "unit": "%"},
      {"measurement": "pest or weed control at 16 g/ha", "setting": "[7]; 16 g ai/ha, scale 0 to 100", "result": 70, "unit": "%"},
      {"measurement": "pest or weed control at 31 g/ha", "setting": "[7]; 31 g ai/ha, scale 0 to 100", "result": 75, "unit": "%"},
      {"measurement": "pest or weed control at 62 g/ha", "setting": "[7]; [14]", "result": 75, "unit": "%"},
      {"measurement": "pest or weed control at 125 g/ha", "setting": "[7]; [15]", "result": 95, "unit": "%"},
      {"measurement": "plant injury at 16 g/ha", "setting": "[8]; 16 g ai/ha, scale 0 to 100", "result": 0, "unit": "%"},
      {"measurement": "plant injury at 31 g/ha", "setting": "[8]; 31 g ai/ha, scale 0 to 100", "result": 0, "unit": "%"},
      {"measurement": "plant injury at 62 g/ha", "setting": "[8]; 62 g ai/ha, scale 0 to 100 (0 no effect, 100 complete control), read-out: Wheat plant response rating", "result": 0, "unit": "%"},
      {"measurement": "plant injury at 125 g/ha", "setting": "[8]; [15]", "result": 0, "unit": "%"},
      {"measurement": "pest or weed control at 16 g/ha", "setting": "[9]; 16 g ai/ha, scale 0 to 100", "result": 0, "unit": "%"},
      {"measurement": "pest or weed control at 31 g/ha", "setting": "[9]; 31 g ai/ha, scale 0 to 100", "result": 0, "unit": "%"},
      {"measurement": "pest or weed control at 62 g/ha", "setting": "[9]; [14]", "result": 5, "unit": "%"},
      {"measurement": "pest or weed control at 125 g/ha", "setting": "[9]; [15]", "result": 20, "unit": "%"},
      {"measurement": "pest or weed control at 16 g/ha", "setting": "[10]; 16 g ai/ha, scale 0 to 100", "result": 35, "unit": "%"},
      {"measurement": "pest or weed control at 31 g/ha", "setting": "[10]; 31 g ai/ha, scale 0 to 100", "result": 80, "unit": "%"},
      {"measurement": "pest or weed control at 62 g/ha", "setting": "[10]; [14]", "result": 90, "unit": "%"},
      {"measurement": "pest or weed control at 125 g/ha", "setting": "[10]; [15]", "result": 90, "unit": "%"},
      {"measurement": "pest or weed control at 16 g/ha", "setting": "[11]; 16 g ai/ha, scale 0 to 100", "result": 65, "unit": "%"},
      {"measurement": "pest or weed control at 31 g/ha", "setting": "[11]; 31 g ai/ha, scale 0 to 100", "result": 75, "unit": "%"},
      {"measurement": "pest or weed control at 62 g/ha", "setting": "[11]; [14]", "result": 85, "unit": "%"},
      {"measurement": "pest or weed control at 125 g/ha", "setting": "[11]; [15]", "result": 90, "unit": "%"},
      {"measurement": "pest or weed control at 62 g/ha", "setting": "[12]; 62 g ai/ha, scale of 0 to 100", "result": 100, "unit": "%"},
      {"measurement": "pest or weed control at 125 g/ha", "setting": "[12]; 125 g ai/ha, scale of 0 to 100", "result": 100, "unit": "%"},
      {"measurement": "pest or weed control at 16 g/ha", "setting": "[12]; 16 g ai/ha, scale 0 to 100", "result": 10, "unit": "%"},
      {"measurement": "pest or weed control at 31 g/ha", "setting": "[12]; 31 g ai/ha, scale 0 to 100", "result": 85, "unit": "%"},
      {"measurement": "Plant response rating, Pigweed", "setting": "[13]; 125 g ai/ha, scale of 0 to 100", "result": 100},
      {"measurement": "Plant response rating, Pigweed", "setting": "[13]; 16 g ai/ha, scale 0 to 100", "result": 98},
      {"measurement": "Plant response rating, Pigweed", "setting": "[13]; 31 g ai/ha, scale 0 to 100", "result": 100},
      {"measurement": "Plant response rating, Pigweed", "setting": "[13]; 62 g ai/ha, scale 0 to 100", "result": 100}
    ]}
  ]
}
